Source: the CheMixHub viscosity set

Test: xn = mol fraction of the nth substance listed
Settings: 100 kPa

CC(O)CO (stereo not given) + CS(C)=O
viscosity [mPa·s]
Settings | 293.15 K | 298.15 K | 303.15 K | 308.15 K | 313.15 K | 318.15 K
x1 = 0.0513 | 2.52 | 2.24 | 2.04 | 1.8 | 1.65 | 1.55
x1 = 0.1024 | 2.82 | 2.51 | 2.28 | 1.99 | 1.82 | 1.7
x1 = 0.1534 | 3.19 | 2.82 | 2.55 | 2.21 | 2.01 | 1.87
x1 = 0.2043 | 3.61 | 3.17 | 2.86 | 2.44 | 2.22 | 2.06
x1 = 0.255 | 4.08 | 3.54 | 3.19 | 2.72 | 2.46 | 2.27
x1 = 0.3056 | 4.63 | 4 | 3.58 | 3.02 | 2.72 | –
x1 = 0.356 | 5.31 | 4.56 | 4.03 | 3.38 | 3.04 | –
x1 = 0.4064 | 6.1 | 5.21 | 4.56 | 3.82 | 3.39 | –
x1 = 0.4566 | 7.04 | 5.93 | 5.17 | 4.28 | 3.8 | –
x1 = 0.5066 | 8.19 | 6.88 | 5.94 | 4.84 | 4.25 | –
x1 = 0.5565 | 9.53 | 7.93 | 6.78 | 5.52 | 4.8 | –
x1 = 0.6063 | 11.3 | 9.3 | 7.84 | 6.36 | 5.45 | –
x1 = 0.6556 | 13.5 | 11 | 9.26 | 7.35 | 6.26 | –
x1 = 0.7055 | 16.3 | 13.1 | 10.9 | 8.58 | 7.23 | –
x1 = 0.7549 | 19.9 | 15.8 | 12.8 | 10.1 | 8.38 | –
x1 = 0.8042 | 24.4 | 19 | 15.4 | 12 | 9.8 | –
x1 = 0.8533 | 30.1 | 23.2 | 18.5 | 14.3 | 11.5 | –
x1 = 0.9024 | 37.7 | 28.7 | 22.7 | 17.2 | 13.7 | –
x1 = 0.9512 | 47.5 | 35.5 | 27.6 | 20.7 | 16.2 | –
